Reference: publication PMC8305873, “Design and heterologous expression of a novel dimeric LL37 variant in Pichia pastoris” (Microbial Cell Factories, 2021)

Assays:
E. coli ATCC 25922 [1] = format: cell-based, Escherichia coli
Protocol: (§1) All experiments were conducted at least three different times.
The salt ions were added to the BSA solution and configured into different final concentrations of salt ions (150 mM NaCl, 4.5 mM KCl, 6 µM NH4Cl, 8 µM ZnCl2, 1 mM MgCl2, 2 mM CaCl2, and 4 µM FeCl3) solutions. The method discribed as above was referred to determine the MIC value of rLG against E. coli ATCC 25922 in the presence of different concentrations of salt ions.

E. coli ATCC 25922 [2] = assay: Transmission electron microscopy (TEM); format: cell-based, Escherichia coli; conditions: 1/2 × MIC (1 μM), 37 °C 1 h
Protocol: E. coli ATCC 25922 was cultured to the logarithmic growth phase and centrifuged to obtain the bacteria. The bacteria were resuspended twice in 0.01 M PBS (pH 7.4) and diluted to OD600 = 0.3. The rLG and bacteria were mixed to a final concentration of 1/2 × MIC (1 μM), and the bacteria without peptide were used as a control. Both samples were incubated at 37 °C for 1 h. The incubated sample was centrifuged at 2500×g for 5 min and washed three times with 0.01 M PBS. Two milliliters of 2.5% glutaraldehyde buffer was added to the bacterial pellet, and the suspension was gently blown and fixed at 4 °C overnight. The cells were washed with 0.01 M PBS and fixed in 1% osmate buffer for 1 h. Then, different concentrations of ethanol were used for gradient dehydration (50%, 70%, 85%, 95% and 100%). Finally, the sample was prepared into ultrathin sections through the process of soaking and embedding, and a Hitachi H-7650 TEM (Hitachi, Japan) was used for observation.

E. coli ATCC 25922 [3] = assay: Cell wall (outer membrane) permeabilization, NPN uptake; format: cell-based, Escherichia coli; conditions: at low concentrations (1, 2, and 4 µM); compared with melittin
Protocol: The cell wall permeability was determined by monitoring the fluorescence release of the fluorescent dye NPN (Sigma, USA). E. coli ATCC 25922 (OD600 = 0.2) and NPN (10 µM) were incubated in 5 mM HEPES buffer (containing 5 mM glucose, pH 7.4) for 30 min. Then, 100 µL of peptides (0.5–32 µM) and an equal volume of bacteria were added to a 96-well plate. An F-4500 fluorescence spectrophotometer (Hitachi, Japan) was used to detect the fluorescence intensity of different wells at a 350 nm excitation wavelength and 420 nm emission wavelength. The peptide-free and polymyxin B-containing fluorescence values were set as negative and positive controls.

P. aeruginosa ATCC 27853 = format: cell-based, Pseudomonas aeruginosa; conditions: Table 3, recombinant vs synthetic LG; mean ± SD of three independent experiments
Protocol: as §1

E. coli ATCC 25922 [4] = format: cell-based, Escherichia coli; conditions: in the absence of physiological salts and serum
E. coli ATCC 078 = format: cell-based, Escherichia coli; conditions: Table 3, recombinant vs synthetic LG; mean ± SD of three independent experiments
Protocol: as §1

E. coli ATCC 25922 [5] = format: cell-based, Escherichia coli; conditions: Table 3, recombinant vs synthetic LG; mean ± SD of three independent experiments
Protocol: as §1

S. aureus ATCC 25923 = format: cell-based, Staphylococcus aureus; conditions: Table 3, recombinant vs synthetic LG; mean ± SD of three independent experiments
Protocol: as §1

S. aureus ATCC 29213 = format: cell-based, Staphylococcus aureus; conditions: Table 3, recombinant vs synthetic LG; mean ± SD of three independent experiments
Protocol: as §1

E. coli ATCC 25922 [6] = assay: Cytoplasmic membrane depolarization, DiSC3-5; format: cell-based, Escherichia coli
Protocol: DiSC3-5 was used to measure the change in plasma membrane potential after peptide treatment. E. coli ATCC 25922 (OD600 = 0.05) was incubated with 0.4 µM DiSC3-5 and 100 mM K^+ in 5 mM HEPES buffer (containing 20 mM glucose, pH 7.4) until the fluorescence decreased stably. […] A fluorescence spectrophotometer (Infinite 200 pro, Tecan, China) was used to record the fluorescence values at an excitation light wavelength of 622 nm and emission light wavelength of 670 nm.

S. Typhimurium C 7731 = format: cell-based, Salmonella Typhimurium; conditions: Table 3, recombinant vs synthetic LG; mean ± SD of three independent experiments
Protocol: as §1

[7] = tested on: S. Typhimurium ATCC 14028; format: cell-based, Salmonella Typhimurium; conditions: Table 3, recombinant vs synthetic LG; mean ± SD of three independent experiments
Protocol: as §1

human red blood cells = assay: Hemolytic activity assay; format: cell-based; conditions: at the highest peptide concentration (128 μM); human red blood cells, 37 °C 1 h; 0.1% Triton X-100 = 100%
Protocol: The collected blood of type B from healthy donor was centrifuged at 1000×g for 5 min to collect red blood cells. The red blood cells were then washed and resuspended in 10 mM PBS (pH 7.4). Fifty microliters of diluted red blood cells and an equal volume of peptide solution (2–128 µM) were incubated in a 96-well plate at 37 °C for 1 h. The red blood cell suspension treated with 0.1% Triton X-100 was used as a positive control (100% hemolysis), and untreated blood cell suspension was used as a negative control. The 96-well plate was centrifuged at 1000×g for 5 min at 4 °C, and then the supernatant was transferred to a new 96-well plate. The absorbance at OD570 was measured with a microplate reader.

S. faecalis ATCC 29212 = format: cell-based, Streptococcus faecalis; conditions: Table 3, recombinant vs synthetic LG; mean ± SD of three independent experiments
Protocol: as §1

[8] = tested on: S. epidermidis ATCC 12228; format: cell-based, Staphylococcus epidermidis; conditions: Table 3, recombinant vs synthetic LG; mean ± SD of three independent experiments
Protocol: as §1

“FKRIVQRIKRFLRGGGGSFKRIVQRIKRFLR [rLG, recombinant LG expressed in P. pastoris as 6 × His-SUMO-LG and released by SUMO protease]” was tested, and the “MIC under physiological salt concentration, FeCl3” value (E. coli ATCC 25922 [1]; 4 µM FeCl3) was 2 µM, the “MIC under physiological salt concentration, NH4Cl” value (E. coli ATCC 25922 [1]; 6 µM NH4Cl) was 2 µM and the “MIC under physiological salt concentration, ZnCl2” value (E. coli ATCC 25922 [1]; 8 µM ZnCl2) was 2 µM. The “MIC under physiological salt concentration, MgCl2” value (E. coli ATCC 25922 [1]; 1 mM MgCl2) was 4 µM, the “MIC under physiological salt concentration, CaCl2” value (E. coli ATCC 25922 [1]; 2 mM CaCl2) was greater than 32 µM and the “MIC under physiological salt concentration, KCl” value (E. coli ATCC 25922 [1]; 4.5 mM KCl) was 2 µM. For the same sequence, the “MIC under physiological salt concentration, NaCl” value (E. coli ATCC 25922 [1]; 150 mM NaCl) was 2 µM, the “MIC under physiological salt concentration, GM” value (E. coli ATCC 25922 [1]; geometric mean of the MIC values in the seven salt solutions) was 3.62 µM and the “MIC under physiological salt concentration, Fold” value (E. coli ATCC 25922 [1]; increase of the MIC value (GM in salts) over the control without salts) was 1.81. The “internal morphology by TEM” value (E. coli ATCC 25922 [2]) was “the membrane of E. coli was destroyed, and the cell contents flowed out”, the “ability to damage or destroy the bacterial cell wall (NPN fluorescence)” value (E. coli ATCC 25922 [3]) was “better than that of melittin” and the MIC (P. aeruginosa ATCC 27853) was 4.44 ± 1.78 µM. For the same sequence, the “MIC, Control” value (E. coli ATCC 25922 [4]) was 2 µM, the MIC (E. coli ATCC 078) was 1.22 ± 0.19 µM and the MIC (E. coli ATCC 25922 [5]) was 1.77 ± 0.19 µM. The MIC (S. aureus ATCC 25923) was 4.44 ± 1.78 µM, the MIC (S. aureus ATCC 29213) was 2.00 ± 0.00 µM and the “plasma membrane potential (DiSC3-5 fluorescence intensity)” value (E. coli ATCC 25922 [6]; lowest tested concentration (1 µM)) was “caused a rapid increase in fluorescence intensity”. The “damage to plasma membrane potential compared with melittin (DiSC3-5)” value (E. coli ATCC 25922 [6]; rLG compared with 16 µM melittin) was “stronger than that of 16 µM melittin”, the MIC (S. Typhimurium C 7731) was 1.33 ± 0.25 µM and the MIC [7] was 3.78 ± 0.44 µM. The “hemolysis (blood cells destroyed)” value (human red blood cells) was “approximately 23%”, the MIC (S. faecalis ATCC 29212) was 1.89 ± 0.11 µM and the MIC [8] was 1.89 ± 0.11 µM.
